{"source": "patent US20080312298A1", "about": "“Methods for Identification of Modulators of Carm1 Methyl Transferase Activity” (priority 2007, published 2008)", "molecular_target": "T1, CARM1 (Homo sapiens, UniProt Q86X55)", "T1 construct": "made in house; host or cells: E. coli", "T1 sequence (Q86X55 1-608)": "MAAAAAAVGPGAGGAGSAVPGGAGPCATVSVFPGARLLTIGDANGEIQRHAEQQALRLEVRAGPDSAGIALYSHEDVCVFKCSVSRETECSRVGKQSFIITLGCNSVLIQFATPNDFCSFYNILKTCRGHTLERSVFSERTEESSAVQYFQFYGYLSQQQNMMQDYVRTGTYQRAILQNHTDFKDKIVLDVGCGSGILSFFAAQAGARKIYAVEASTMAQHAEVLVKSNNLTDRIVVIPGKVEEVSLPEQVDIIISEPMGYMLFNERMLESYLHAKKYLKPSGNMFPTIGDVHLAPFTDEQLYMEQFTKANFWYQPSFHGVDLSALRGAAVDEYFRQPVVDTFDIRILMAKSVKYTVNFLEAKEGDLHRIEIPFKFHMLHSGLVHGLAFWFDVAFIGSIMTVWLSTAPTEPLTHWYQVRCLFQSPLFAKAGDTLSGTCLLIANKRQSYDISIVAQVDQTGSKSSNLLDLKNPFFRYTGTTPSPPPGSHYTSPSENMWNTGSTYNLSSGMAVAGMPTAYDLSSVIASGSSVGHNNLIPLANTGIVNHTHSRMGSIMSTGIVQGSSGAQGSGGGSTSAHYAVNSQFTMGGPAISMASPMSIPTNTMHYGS", "experiment": "CARM1 biochemical assay (scintillation proximity assay, SPA)", "excerpt": "CARM1 biochemical Assay. (e.g. for Determining IC50 Values).\nA fusion protein of CARM1 to MBP (Maltose Binding protein), expressed and purified from E. coli, was used to methylate peptides derived from either the N-terminus of histone H3 (acetyl-STGGKAPRKQLATKAARK-biotin) or from PABP1 (acetyl-[…]-biotin). The H3 peptide has two residues R17 and R26 that have been reported to be methylated by CARM1 (Brandon et al., Biochemistry, 2001, 40(19):5747-5756). The PABP1 peptide also contains two arginine residues, R455 and R460, similarly methylated by CARM1 (Lee and Bedford, EMBO Rep. 2002, 3(3):268-73). The methylation reaction was conducted in the presence of tritiated S-Adenosyl-L-Methionine (3H-SAM), 1 μg MBP-CARM1, 250 nM peptide substrate, and assay buffer (50 mM Tris pH 8.0, 0.03% BSA, 3 mM DTT). The reaction was allowed to proceed at room temperature for 75 minutes before being stopped by Stop buffer (25 mM Tris pH 7.4, 100 mM EDTA, 1% Tween 20) and Streptavidin-coated SPA beads (2 mg/ml) (GE Healthcare). The beads were allowed to settle overnight before the signal was counted in a TOPCOUNT. The final SAM concentration in the reaction and the ratio of tritiated to unlabelled SAM was adjusted to give a good signal/noise. […]"}
{"smiles": "CNC[C@H](O)c1cccc(O)c1", "values": [{"measurement": "mode of inhibition with respect to SAM", "result": "SAM competitive"}, {"measurement": "IC50", "setting": "at saturating SAM concentrations", "result": "low micromolar"}]}
